Sequences and labels used below:
B1: truncated PreprocHEMERIN: 157 amino acid truncated Preprochemerin polypeptide (SEQ ID NO: 73, FIG. 16) (protein, listed as Homo sapiens)
chain: MRRLLIPLALWLGAVGVGVAELTEAQRRGLQVALEEFHKHPPVQWAFQETSVESAVDTPFPAGIFVRLEFKLQQTSCRKRDWKKPECKVRPNGRKRKCLACIKLGSEDKVLGRLVHCPIETQVLREAEEHQETQCLRVQRAGEDPHSFYFPGQFAFS

Peptide text beside a SMILES is read from it.

The first assay has as its target T1, human ChemerinR (ChemR23) expressed in CHO-K1 cells (Homo sapiens, UniProt Q99788).
T1 construct: This fragment was subcloned into the pcDNA3 (Invitrogen) vector; expressed in transfected cells; host or cells: CHO-K1 (co-expressing mitochondrial apoaequorin and Galpha16)
T1 sequence (Q99788 3-373): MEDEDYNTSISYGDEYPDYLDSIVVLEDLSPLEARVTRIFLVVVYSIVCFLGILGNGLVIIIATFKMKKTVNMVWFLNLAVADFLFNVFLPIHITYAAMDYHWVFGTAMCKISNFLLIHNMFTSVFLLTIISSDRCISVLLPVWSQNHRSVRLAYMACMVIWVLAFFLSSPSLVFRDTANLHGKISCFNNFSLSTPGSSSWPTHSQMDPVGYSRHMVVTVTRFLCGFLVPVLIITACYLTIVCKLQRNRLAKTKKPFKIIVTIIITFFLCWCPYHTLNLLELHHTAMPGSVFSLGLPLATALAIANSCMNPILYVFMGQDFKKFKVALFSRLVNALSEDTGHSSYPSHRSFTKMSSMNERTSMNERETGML
Description: aequorin-based intracellular Ca2+ release assay. In kind it is cell-based.
Details: not given
As for the experimental part: Briefly, ChemerinR-expressing clones are transfected to coexpress mitochondrial apoaequorin and Gα16. Cells are incubated with 5 μM Coelenterazine H (Molecular Probes) for 4 hours at room temperature, washed in DMEM-F12 culture medium and resuspended at a concentration of 0.5×10^6 cells/ml. Cells are then mixed with test agonist peptides and light emission by the aequorin is recorded with a luminometer for 30 sec. Results are expressed as Relative Light Units (RLU). Controls include assays using membranes isolated from cells not expressing ChemerinR (mock-transfected), in order to exclude possible non-specific effects of the candidate compound.
ChemerinR-expres sing clones have been obtained by transfection of CHO-K1 cells to coexpressing mitochondrial apoaequorin and Gα16, limiting dilution and selection by northern blotting. Positive clones were used for screening with human ovarian cancer ascites extracts prepared as described above. […] Briefly, cells were collected from plates in PBS containing 5 mM EDTA, pelleted and resuspended at 5×10^6 cells/ml in DMEM-F12 medium. Cells were incubated with 5 μM Coelenterazine H (Molecular Probes) for 4 hours at room temperature. Cells were then washed in DMEM-F12 medium and resuspended at a concentration of 0.5×10^6 cells/ml. Cells were then mixed with test agonist peptides or plates containing tissue extracts and the light emission was recorded for 30 sec using a Microlumat luminometer (Perkin Elmer). Results are expressed as Relative Light Units (RLU).
As to `C[C@H](NC(=O)[C@H](Cc1ccccc1)NC(=O)[C@H](CCC(N)=O)NC(=O)CNC(=O)[C@@H]1CCCN1C(=O)[C@@H](N)Cc1ccccc1)C(=O)N[C@@H](Cc1ccccc1)C(=O)N[C@@H](CO)C(=O)O` [Human Chemerin-8] (H-FPGQFAFS-OH; N-terminus and C-terminus assumed), the EC50 was determined as 2 ± 1 µM.
On the same count and under the same terms, under `C[C@H](NC(=O)[C@H](Cc1ccccc1)NC(=O)[C@H](CCC(N)=O)NC(=O)CNC(=O)[C@@H]1CCCN1C(=O)[C@H](Cc1ccccc1)NC(=O)[C@H](Cc1ccc(O)cc1)NC(=O)[C@@H](N)Cc1ccccc1)C(=O)N[C@@H](Cc1ccccc1)C(=O)N[C@@H](CO)C(=O)O` [Human Chemerin-10] (H-FYFPGQFAFS-OH; N-terminus and C-terminus assumed) stands 0.0082 ± 0.002 µM.
Regarding `C[C@H](NC(=O)[C@H](Cc1ccccc1)NC(=O)[C@H](CCC(N)=O)NC(=O)CNC(=O)[C@@H]1CCCN1C(=O)[C@H](Cc1ccccc1)NC(=O)[C@H](Cc1ccc(O)cc1)NC(=O)[C@H](Cc1ccccc1)NC(=O)[C@H](CO)NC(=O)[C@H](Cc1c[nH]cn1)NC(=O)[C@@H]1CCCN1C(=O)[C@H](CC(=O)O)NC(=O)[C@H](CCC(=O)O)NC(=O)CNC(=O)[C@H](C)NC(=O)[C@H](CCCNC(=N)N)NC(=O)[C@@H](N)CCC(N)=O)C(=O)N[C@@H](Cc1ccccc1)C(=O)N[C@@H](CO)C(=O)O` [Human Chemerin-19] (H-QRAGEDPHSFYFPGQFAFS-OH), the EC50 stood at 0.0167 ± 0.0032 µM.
The same measure, in the same setting: the figure for `C[C@H](NC(=O)[C@H](Cc1ccccc1)NC(=O)[C@H](CCC(N)=O)NC(=O)CNC(=O)[C@@H]1CCCN1C(=O)[C@H](Cc1ccccc1)NC(=O)[C@H](Cc1ccc(O)cc1)NC(=O)[C@H](Cc1ccccc1)NC(=O)[C@H](CO)NC(=O)[C@H](Cc1c[nH]cn1)NC(=O)[C@@H]1CCCN1)C(=O)N[C@@H](Cc1ccccc1)C(=O)N[C@@H](CO)C(=O)O` [Human Chemerin-13] (H-PHSFYFPGQFAFS-OH) is 0.014 µM; for `C[C@H](NC(=O)[C@H](CCCNC(=N)N)NC(=O)[C@@H](N)CCC(N)=O)C(=O)NCC(=O)N[C@@H](CCC(=O)O)C(=O)N[C@@H](CC(=O)O)C(=O)N1CCC[C@H]1C(=O)N[C@@H](Cc1c[nH]cn1)C(=O)N[C@@H](CO)C(=O)N[C@@H](Cc1ccccc1)C(=O)N[C@@H](Cc1ccc(O)cc1)C(=O)N[C@@H](Cc1ccccc1)C(=O)N1CCC[C@H]1C(=O)NCC(=O)N[C@@H](CCC(N)=O)C(=O)N[C@@H](Cc1ccccc1)C(=O)O` [Human [ΔAla17Phe18Ser19] Chemerin-19] (H-QRAGEDPHSFYFPGQF-OH) it is 130 ± 10 µM; for `C[C@H](NC(=O)[C@H](Cc1ccccc1)NC(=O)[C@H](CCC(N)=O)NC(=O)CNC(=O)[C@@H]1CCCN1C(=O)[C@H](Cc1ccccc1)NC(=O)[C@H](Cc1ccc(O)cc1)NC(=O)[C@H](Cc1ccccc1)NC(=O)[C@H](CO)NC(=O)[C@@H](N)Cc1c[nH]cn1)C(=O)N[C@@H](Cc1ccccc1)C(=O)N[C@@H](CO)C(=O)O` [Human Chemerin-12] (H-HSFYFPGQFAFS-OH; N-terminus and C-terminus assumed) it is 0.0122 ± 0.0034 µM.
Still for that read-out and setting: the figure for `C[C@H](NC(=O)[C@H](Cc1ccccc1)NC(=O)[C@H](CCC(N)=O)NC(=O)CNC(=O)[C@@H]1CCCN1C(=O)[C@H](Cc1ccccc1)NC(=O)[C@H](Cc1ccc(O)cc1)NC(=O)[C@H](Cc1ccccc1)NC(=O)[C@H](CO)NC(=O)[C@H](Cc1c[nH]cn1)NC(=O)[C@@H]1CCCN1C(=O)[C@H](CC(=O)O)NC(=O)[C@H](CCC(=O)O)NC(=O)CNC(=O)[C@H](C)NC(=O)[C@H](CCCNC(=N)N)NC(=O)[C@@H](N)CCC(N)=O)C(=O)N[C@@H](Cc1ccccc1)C(=O)N[C@@H](CO)C(=O)N[C@@H](CCCCN)C(=O)O` [Human [Lys20] Chemerin-19] (H-QRAGEDPHSFYFPGQFAFSK-OH) is 170 µM; for `C[C@H](NC(=O)[C@H](Cc1ccccc1)NC(=O)[C@H](CCC(N)=O)NC(=O)CNC(=O)[C@@H]1CCCN1C(=O)[C@H](Cc1ccccc1)NC(=O)[C@H](Cc1ccc(O)cc1)NC(=O)[C@H](Cc1ccccc1)NC(=O)[C@H](CO)NC(=O)[C@H](Cc1c[nH]cn1)NC(=O)[C@@H]1CCCN1C(=O)[C@H](CC(=O)O)NC(=O)[C@H](CCC(=O)O)NC(=O)CNC(=O)[C@H](C)NC(=O)[C@H](CCCNC(=N)N)NC(=O)[C@@H](N)CCC(N)=O)C(=O)O` [Human [ΔPhe18Ser19] Chemerin-19] (H-QRAGEDPHSFYFPGQFA-OH; N-terminus and C-terminus assumed) it is 220 µM.
Molecule `C[C@H](N)C(=O)N[C@@H](Cc1ccccc1)C(=O)N1CCC[C@H]1C(=O)NCC(=O)N[C@@H](CCC(N)=O)C(=O)N[C@@H](Cc1ccccc1)C(=O)N[C@@H](C)C(=O)N[C@@H](Cc1ccccc1)C(=O)N[C@@H](CO)C(=O)O` [Human [Ala-1] Chemerin-9] (H-AFPGQFAFS-OH; N-terminus and C-terminus assumed) yielded an EC50 of 0.496 ± 0.08 µM.
For `C[C@H](NC(=O)[C@H](Cc1ccccc1)NC(=O)[C@H](CCC(N)=O)NC(=O)CNC(=O)[C@@H]1CCCN1)C(=O)N[C@@H](Cc1ccccc1)C(=O)N[C@@H](CO)C(=O)O` [Human Chemerin-7, PGQFAFS] (H-PGQFAFS-OH), the response was half-maximal at 220 ± 100 µM (EC50).
The molecule `C[C@H](NC(=O)[C@H](Cc1ccccc1)NC(=O)[C@H](CCC(N)=O)NC(=O)CNC(=O)[C@@H]1CCCN1C(=O)[C@H](Cc1ccccc1)NC(=O)[C@H](Cc1ccc(O)cc1)NC(=O)[C@H](Cc1ccccc1)NC(=O)[C@H](CO)NC(=O)[C@H](Cc1c[nH]cn1)NC(=O)[C@@H]1CCCN1C(=O)[C@H](CC(=O)O)NC(=O)[C@H](CCC(=O)O)NC(=O)CNC(=O)[C@H](C)NC(=O)[C@H](CCCNC(=N)N)NC(=O)[C@@H](N)CCC(N)=O)C(=O)N[C@@H](Cc1ccccc1)C(=O)O` [Human [ΔSer19] Chemerin-19] (H-QRAGEDPHSFYFPGQFAF-OH; N-terminus and C-terminus assumed) had a half-maximal effective concentration (EC50) of 0.097 ± 0.013 µM.

Staying with this assay, now noted: CHO cells expressing ChemerinR, aequorin assay; read-out: EC50 for activation of ChemerinR.
Regarding B1, the EC50 came to 0.00427 µM.

Still in this assay, the particulars now being: result in words.
As to QRAGEDPHSFYFPGQ, the “Mean EC50” value is on record as “inactif”.

The assay is the same for the next values; noted with them: truncated Chemerin peptides, values given in μM; read-out: Mean EC50.
As for `C[C@H](NC(=O)[C@H](C)NC(=O)[C@H](Cc1ccccc1)NC(=O)[C@H](CCC(N)=O)NC(=O)CNC(=O)[C@@H]1CCCN1C(=O)[C@H](Cc1ccccc1)NC(=O)[C@@H](N)Cc1ccc(O)cc1)C(=O)N[C@@H](CO)C(=O)O` [Human [Ala-8] Chemerin-9] (H-YFPGQFAAS-OH; N-terminus and C-terminus assumed), the half-maximal effective concentration (EC50) amounted to 38 ± 7 µM.
Turning to `CC(C)C[C@H](NC(=O)[C@H](C)NC(=O)[C@H](CCCCN)NC(=O)[C@H](CO)NC(=O)[C@H](Cc1ccccc1)NC(=O)[C@H](C)NC(=O)[C@H](Cc1ccccc1)NC(=O)[C@H](CCC(N)=O)NC(=O)CNC(=O)[C@@H]1CCCN1C(=O)[C@H](Cc1ccccc1)NC(=O)[C@H](Cc1ccc(O)cc1)NC(=O)[C@H](Cc1ccccc1)NC(=O)[C@H](CO)NC(=O)[C@H](Cc1c[nH]cn1)NC(=O)[C@@H]1CCCN1C(=O)[C@H](CC(=O)O)NC(=O)[C@H](CCC(=O)O)NC(=O)CNC(=O)[C@H](C)NC(=O)[C@H](CCCNC(=N)N)NC(=O)[C@@H](N)CCC(N)=O)C(=O)N1CCC[C@H]1C(=O)N[C@@H](CCCNC(=N)N)C(=O)N[C@@H](CO)C(=O)O` [Human prochemerin-25] (H-QRAGEDPHSFYFPGQFAFSKALPRS-OH; N-terminus and C-terminus assumed), the half-maximal effective concentration (EC50) was 160 ± 21 µM.
Same read-out and setting: under `C[C@H](NC(=O)[C@H](C)NC(=O)[C@H](CCC(N)=O)NC(=O)CNC(=O)[C@@H]1CCCN1C(=O)[C@H](Cc1ccccc1)NC(=O)[C@@H](N)Cc1ccc(O)cc1)C(=O)N[C@@H](Cc1ccccc1)C(=O)N[C@@H](CO)C(=O)O` [Human [Ala-6] Chemerin-9] (H-YFPGQAAFS-OH; N-terminus and C-terminus assumed) stands 5 ± 1 µM.

The assay is the same for the next values; noted with them: truncated Chemerin peptides, values in nM; read-out: Mean EC50.
As for `C[C@H](NC(=O)[C@H](Cc1ccccc1)NC(=O)[C@H](CCC(N)=O)NC(=O)CNC(=O)[C@@H]1CCCN1C(=O)[C@H](C)NC(=O)[C@@H](N)Cc1ccc(O)cc1)C(=O)N[C@@H](Cc1ccccc1)C(=O)N[C@@H](CO)C(=O)O` [Human [Ala-2] Chemerin-9] (H-YAPGQFAFS-OH; N-terminus and C-terminus assumed), the EC50 turned out to be 0.155 ± 0.0416 µM.

Usually EC50 stands for the concentration giving half of the maximal effect.

(Values after patent publication US8030453B2, “Methods of making an antibody that binds a chemerin polypeptide” (Euroscreen S.A., priority 2001, dated 2011).)
